Test results: patent US5364842A (priority 1993, dated 1994)
Values joined by “and” are separate entries in the source; they are usually repeats but may differ in a detail not shown here. Identical values can stand only once.

Legend:
[1] = test system: voltage-gated calcium currents in IMR-32 cells; assay type: cell-based, human
[2] = target: N-type or omega HVA neuronal calcium channels; calcium currents in N1E-115 neuroblastoma cells (Mus musculus, UniProt O55017); assay type: cell-based
[3] = test system: rat tail-flick latency to heat stimulus; settings: in vivo
[4] = test system: potassium-stimulated acetylcholine release from striatal slices; settings: 1 µM
[5] = test system: potassium-stimulated dopamine release from striatal slices; assay type: cell-based, rat; settings: 1 µM

Chain of N-type or omega HVA neuronal calcium channels; calcium currents in N1E-115 neuroblastoma cells (O55017 whole entry): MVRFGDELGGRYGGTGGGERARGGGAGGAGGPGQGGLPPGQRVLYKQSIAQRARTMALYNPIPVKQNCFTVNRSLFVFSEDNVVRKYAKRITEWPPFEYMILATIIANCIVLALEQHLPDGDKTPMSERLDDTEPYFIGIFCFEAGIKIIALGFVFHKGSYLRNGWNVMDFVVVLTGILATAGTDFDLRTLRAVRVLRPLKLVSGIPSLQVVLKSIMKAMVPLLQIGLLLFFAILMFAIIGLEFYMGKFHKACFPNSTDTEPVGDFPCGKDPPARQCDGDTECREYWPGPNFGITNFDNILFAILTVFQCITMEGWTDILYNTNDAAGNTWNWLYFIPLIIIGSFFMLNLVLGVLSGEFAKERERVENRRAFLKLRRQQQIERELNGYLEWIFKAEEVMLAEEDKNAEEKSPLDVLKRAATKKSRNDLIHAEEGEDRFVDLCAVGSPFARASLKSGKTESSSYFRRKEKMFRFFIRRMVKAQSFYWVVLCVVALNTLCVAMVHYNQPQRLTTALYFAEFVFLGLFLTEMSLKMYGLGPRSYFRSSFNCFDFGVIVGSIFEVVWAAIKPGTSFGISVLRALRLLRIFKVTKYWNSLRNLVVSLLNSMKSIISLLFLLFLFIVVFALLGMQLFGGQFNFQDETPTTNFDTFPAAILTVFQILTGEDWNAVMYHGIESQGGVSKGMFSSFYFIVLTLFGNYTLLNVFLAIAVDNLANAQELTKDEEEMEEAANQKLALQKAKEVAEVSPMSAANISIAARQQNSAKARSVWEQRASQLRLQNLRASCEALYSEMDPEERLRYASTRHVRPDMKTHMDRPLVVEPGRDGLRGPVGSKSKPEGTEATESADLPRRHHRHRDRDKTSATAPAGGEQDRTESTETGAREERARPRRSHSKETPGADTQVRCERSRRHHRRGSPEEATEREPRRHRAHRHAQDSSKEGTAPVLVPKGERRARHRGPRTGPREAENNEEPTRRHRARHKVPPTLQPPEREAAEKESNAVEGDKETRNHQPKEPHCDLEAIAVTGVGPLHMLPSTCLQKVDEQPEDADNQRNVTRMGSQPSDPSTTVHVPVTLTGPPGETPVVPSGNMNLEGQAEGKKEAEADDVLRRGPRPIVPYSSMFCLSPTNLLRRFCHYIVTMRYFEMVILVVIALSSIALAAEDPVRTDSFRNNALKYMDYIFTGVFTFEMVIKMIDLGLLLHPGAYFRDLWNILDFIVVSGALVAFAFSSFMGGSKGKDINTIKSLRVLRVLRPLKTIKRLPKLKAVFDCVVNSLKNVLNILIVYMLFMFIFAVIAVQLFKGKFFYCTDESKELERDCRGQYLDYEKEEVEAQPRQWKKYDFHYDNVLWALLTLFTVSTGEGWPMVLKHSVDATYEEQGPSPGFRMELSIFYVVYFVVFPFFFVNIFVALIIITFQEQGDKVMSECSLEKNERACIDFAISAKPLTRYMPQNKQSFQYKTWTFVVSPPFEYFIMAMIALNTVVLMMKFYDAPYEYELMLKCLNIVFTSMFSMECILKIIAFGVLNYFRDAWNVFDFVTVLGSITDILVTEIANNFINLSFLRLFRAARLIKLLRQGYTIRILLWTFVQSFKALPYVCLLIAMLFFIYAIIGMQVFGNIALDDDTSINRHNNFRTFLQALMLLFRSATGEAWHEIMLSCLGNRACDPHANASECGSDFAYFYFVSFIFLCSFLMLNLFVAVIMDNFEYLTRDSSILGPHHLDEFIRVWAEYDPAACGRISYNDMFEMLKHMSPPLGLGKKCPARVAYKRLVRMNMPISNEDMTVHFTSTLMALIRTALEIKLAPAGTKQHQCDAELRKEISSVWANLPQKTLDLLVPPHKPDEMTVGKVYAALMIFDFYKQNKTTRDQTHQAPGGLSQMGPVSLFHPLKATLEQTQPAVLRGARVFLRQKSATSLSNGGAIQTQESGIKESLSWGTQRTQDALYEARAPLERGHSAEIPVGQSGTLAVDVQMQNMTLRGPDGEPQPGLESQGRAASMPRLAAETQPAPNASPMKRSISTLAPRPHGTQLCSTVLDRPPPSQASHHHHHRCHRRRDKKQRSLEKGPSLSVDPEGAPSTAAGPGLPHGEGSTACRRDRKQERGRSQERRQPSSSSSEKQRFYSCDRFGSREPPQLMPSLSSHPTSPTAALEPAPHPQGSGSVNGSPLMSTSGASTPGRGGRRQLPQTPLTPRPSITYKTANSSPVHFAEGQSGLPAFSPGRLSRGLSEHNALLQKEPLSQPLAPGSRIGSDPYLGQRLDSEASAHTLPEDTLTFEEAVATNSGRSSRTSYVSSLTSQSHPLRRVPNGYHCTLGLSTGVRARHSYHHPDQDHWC
Chain of N-type or omega HVA neuronal calcium channels; calcium currents in N1E-115 neuroblastoma cells (O08532 25-956 partner limits assumed): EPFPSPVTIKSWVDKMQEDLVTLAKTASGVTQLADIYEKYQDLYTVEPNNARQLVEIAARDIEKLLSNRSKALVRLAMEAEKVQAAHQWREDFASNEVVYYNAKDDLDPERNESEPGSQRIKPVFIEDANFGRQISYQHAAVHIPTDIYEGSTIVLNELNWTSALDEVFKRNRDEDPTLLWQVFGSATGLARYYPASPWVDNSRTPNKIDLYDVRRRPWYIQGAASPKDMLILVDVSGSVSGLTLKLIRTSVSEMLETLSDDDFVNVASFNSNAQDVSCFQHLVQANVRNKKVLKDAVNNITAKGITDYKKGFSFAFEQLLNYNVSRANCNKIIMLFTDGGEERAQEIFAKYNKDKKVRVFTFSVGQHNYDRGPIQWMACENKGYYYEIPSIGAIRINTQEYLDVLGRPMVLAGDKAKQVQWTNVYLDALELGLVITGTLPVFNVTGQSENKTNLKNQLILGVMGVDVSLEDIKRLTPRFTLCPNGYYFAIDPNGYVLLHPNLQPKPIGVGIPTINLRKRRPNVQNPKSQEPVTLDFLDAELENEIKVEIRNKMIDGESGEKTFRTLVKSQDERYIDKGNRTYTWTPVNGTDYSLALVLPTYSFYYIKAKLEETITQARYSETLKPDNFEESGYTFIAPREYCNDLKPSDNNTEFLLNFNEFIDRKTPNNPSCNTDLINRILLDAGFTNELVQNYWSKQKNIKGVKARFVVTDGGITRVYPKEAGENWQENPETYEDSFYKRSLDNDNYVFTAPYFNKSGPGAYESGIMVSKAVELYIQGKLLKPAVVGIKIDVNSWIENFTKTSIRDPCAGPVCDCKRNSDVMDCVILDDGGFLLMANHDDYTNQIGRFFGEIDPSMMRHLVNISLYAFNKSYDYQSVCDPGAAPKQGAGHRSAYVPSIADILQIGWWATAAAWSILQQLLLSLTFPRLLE
Chain of N-type or omega HVA neuronal calcium channels; calcium currents in N1E-115 neuroblastoma cells (O08532 957-1103 partner limits assumed): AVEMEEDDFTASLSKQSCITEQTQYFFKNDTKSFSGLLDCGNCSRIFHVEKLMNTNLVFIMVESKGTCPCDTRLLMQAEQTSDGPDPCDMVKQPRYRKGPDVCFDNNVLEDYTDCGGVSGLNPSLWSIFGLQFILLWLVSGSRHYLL

With cadmium the “effect of addition to the medium on remaining voltage-gated calcium currents” value [1] was “blockade of all remaining voltage-gated calcium currents”.

With `COC(=O)C1=C(C)NC(C)=C(C(=O)OC)C1c1ccccc1[N+](=O)[O-]` [nifedipine] the “effect on the measured calcium current” value [2] was “no effect”.

With `CN1CC[C@]23c4c5ccc(O)c4O[C@H]2[C@@H](O)C=C[C@H]3[C@H]1C5` [Morphine, morphine] the “Analgesia (% Effect), mean MPE” value [3] was 23, the “Latency Percent Effect, mean” value [3] was 17 and 19 and 18 and the “Latency Percent Effect, mean MPE” value [3] was 26.

For amiodipine, the “% inhibition of [3H]acetylcholine release” value [4] was 0 and the “% inhibition of [3H]dopamine release” value [5] was 0.
